Measured values taken from patent publication US20220281848A1, “PYRAZOLE-SUBSTITUTED PYRROLIDINONES AS HERBICIDES” (FMC Corporation, priority 2019, published 2022).

Tested on: plants
Experiment: Test D pre-emergence, other plants of Tables D1 and D3
Assay type: in vivo
Conditions: pre-emergence, 100=total damage, 0=no damage
Description: A formulation containing 50 g/L of the test chemical was prepared by dissolving the active ingredient in a mixture of organic solvents and emulsifier, details of which are provided in the table. This formulation was then mixed with a small, variable amount of acetone to aid dissolution, before addition of a 0.2% v/v aqueous solution of an adjuvant, as the aqueous diluent, to form an aqueous spray solution which contains a predetermined concentration of the active ingredient.
This aqueous spray solution was then sprayed onto plants including maize and wheat that had been seed treated with a herbicide safener, after one day's cultivation (for pre-emergence) or after about 12 days' cultivation (for post-emergence). The plants were grown from seeds sown in standard soil, placed in a glasshouse under controlled conditions (at 24/18° C. or 20/16° C., day/night; 16 h light; 65% humidity). After spray application the plants were then grown in a glasshouse under the same conditions and watered twice daily. After 15 d for post-emergence and 20 DAA for pre-emergence the test was evaluated (100=total damage to plant; 0=no damage to plant).

## CN1CC(c2cc(C(F)(F)F)n(C)n2)C(C(=O)Nc2cccc(F)c2C(F)(F)F)C1=O (racemic) [Compound 19]
Rate 15, 20 DAA
  damage to plant, ALOMY: 0
  damage to plant, AVEFA: 0
  damage to plant, BEAVA: 0
  damage to plant, BROTE: 0
  damage to plant, BRSNN: 0
  damage to plant, CHEAL: 0
  damage to plant, GALAP: 0
  damage to plant, HORVW: 0
  damage to plant, KCHSC: 0
  damage to plant, LOLPE: 0
  damage to plant, POAAN: 0
  damage to plant, POLCO: 0
  damage to plant, SINAR: 0
  damage to plant, STEME: 0
  damage to plant, VERPE: 0
Rate 30, 20 DAA
  damage to plant, ALOMY: 0
  damage to plant, AVEFA: 0
  damage to plant, BEAVA: 0
  damage to plant, BROTE: 0
  damage to plant, BRSNN: 0
  damage to plant, CHEAL: 0
  damage to plant, GALAP: 0
  damage to plant, HORVW: 0
  damage to plant, KCHSC: 0
  damage to plant, LOLPE: 0
  damage to plant, POAAN: 0
  damage to plant, POLCO: 0
  damage to plant, SINAR: 0
  damage to plant, STEME: 0
  damage to plant, VERPE: 0
Rate 60, 20 DAA
  damage to plant, ALOMY: 0
  damage to plant, AVEFA: 0
  damage to plant, BEAVA: 0
  damage to plant, BROTE: 0
  damage to plant, BRSNN: 0
  damage to plant, CHEAL: 0
  damage to plant, GALAP: 0
  damage to plant, HORVW: 0
  damage to plant, KCHSC: 0
  damage to plant, LOLPE: 0
  damage to plant, POAAN: 10
  damage to plant, POLCO: 0
  damage to plant, SINAR: 0
  damage to plant, STEME: 0
  damage to plant, VERPE: 0
Rate 130, 20 DAA
  damage to plant, ALOMY: 0
  damage to plant, AVEFA: 0
  damage to plant, BEAVA: 0
  damage to plant, BROTE: 0
  damage to plant, BRSNN: 0
  damage to plant, CHEAL: 0
  damage to plant, GALAP: 0
  damage to plant, HORVW: 0
  damage to plant, KCHSC: 0
  damage to plant, LOLPE: 0
  damage to plant, POAAN: 20
  damage to plant, POLCO: 0
  damage to plant, SINAR: 0
  damage to plant, STEME: 0
  damage to plant, VERPE: 0
Rate 250, 20 DAA
  damage to plant, ALOMY: 20
  damage to plant, AVEFA: 10
  damage to plant, BEAVA: 0
  damage to plant, BROTE: 10
  damage to plant, BRSNN: 0
  damage to plant, CHEAL: 10
  damage to plant, GALAP: 0
  damage to plant, HORVW: 0
  damage to plant, KCHSC: 0
  damage to plant, LOLPE: 30
  damage to plant, POAAN: 80
  damage to plant, POLCO: 0
  damage to plant, SINAR: 0
  damage to plant, STEME: 10
  damage to plant, VERPE: 60
Rate 500, 20 DAA
  damage to plant, ALOMY: 70
  damage to plant, AVEFA: 70
  damage to plant, BEAVA: 0
  damage to plant, BROTE: 30
  damage to plant, BRSNN: 20
  damage to plant, CHEAL: 20
  damage to plant, GALAP: 0
  damage to plant, HORVW: 20
  damage to plant, KCHSC: 0
  damage to plant, LOLPE: 80
  damage to plant, POAAN: 80
  damage to plant, POLCO: 10
  damage to plant, SINAR: 0
  damage to plant, STEME: 60
  damage to plant, VERPE: 70
